{"source": "patent US8835631B2", "about": "“Therapeutic agent for cerebral infarction” (Mitsubishi Tanabe Pharma Corporation, priority 2007, dated 2014)", "key": {"[1]": {"test_system": "IL-6", "assay": "Intracerebral IL-6 production in rat middle cerebral artery occlusion-reperfusion model", "format": "in vivo, male Wistar rats", "conditions": "10 mg/kg intravenously 30 min after occlusion; brain isolated 12 hr after occlusion; ELISA; FIG. 3", "method": "The middle cerebral artery of male Wistar rats (Japan Laboratory animals Inc.) was obstructed with suture (silicon-coated nylon thread), and test compound A (10 mg/kg) dissolved in saline was intravenously administered in 30 min after occlusion, and middle cerebral artery was reperfused in 60 min after administration. In only the rats used for TNF-α measurement, test compound A was administered orally. The brain was isolated at 12 hr after the occlusion (see Koizumi, J. et al., Jpn. J. Stroke, 8, 1-8, 1986). The brain tissue was homogenized, the centrifuged supernatant was collected and cytokine and chemokine were measured by ELISA. Intracerebral TNF-α, IL-1β and IL-6 were measured using an Immunoassay Kit (BIOSOURCE) according to the manufactures' protocol. MCP-1 was measured using an MCP-1 Instant ELISA (Bener MedSystems) according to the manufactures' protocol."}, "[2]": {"assay": "Evaluation of intracerebral transitivity in rat", "format": "in vivo, SD(IGS) rats", "conditions": "for Kp value (ratio of plasma concentration and intracerebral concentration): 30 mg/kg orally", "method": "The test compound A dissolved in 0.5% aqueous HPMC solution was orally administered at 30 mg/kg, and test compound B and test compound C dissolved in 0.5% aqueous HPMC solution were each orally administered at 3 mg/kg to SD(IGS) rats (Charles River Laboratories Japan). At 1 hr and 4 hr after the administration of the test compound, blood samples were collected, and the brain (cerebral•cerebellum) was isolated. The plasma concentration and intracerebral concentration of each test compound were measured, and the ratio (Kp value) thereof was calculated, based on which the intracerebral transitivity was evaluated."}}, "data": [{"smiles": "CC(=O)NC1(c2ccc(CN3CCN(c4ncccn4)CC3)cc2)CC1.Cl", "note": "[test compound A, N-(1-(4-((4-(pyrimidin-2-yl)piperazin-1-yl)methyl)phenyl)cyclopropyl)acetamide•hydrochloride]", "values": [{"measurement": "intracerebral IL-6 concentration increased by transient cerebral ischemia", "setting": "[1]", "value": "suppressed"}, {"measurement": "Kp value (ratio of plasma concentration and intracerebral concentration)", "setting": "[2]; 1 hr after administration", "value": 0.5}, {"measurement": "Kp value (ratio of plasma concentration and intracerebral concentration)", "setting": "[2]; 4 hr after administration", "value": 0.5}, {"measurement": "intracerebral transitivity (in words)", "setting": "[2]; orally, test compound A 30 mg/kg, test compounds B and C 3 mg/kg", "value": "intracerebrally transferred"}]}]}
